system: Mycobacterium tuberculosis; assay: Minimum inhibitory concentration against Mycobacterium tuberculosis var. bovis strain at 310K, with value expressed as pMIC i.e. -log of MIC (ug/mL).; assay type: functional

SMILES | pMIC
NNC(=O)c1ccccc1[N+](=O)[O-] | 0.52
NNC(=O)c1ccncn1 | 1.7
NNC(=O)c1ccc([N+](=O)[O-])cc1 | 1.92
NNC(=O)c1c[nH]cn1 | 2.7
NNC(=O)/C=C/c1ccccc1 | 3.4
NNC(=O)C1CCNCC1 | 0.22
NNC(=O)c1ccnc2ccccc12 | 1.1
NNC(=O)c1ccc(O)cc1 | 1.92
NNC(=O)c1ccc(Br)cc1 | 1.92
NNC(=O)c1cccc([N+](=O)[O-])c1 | 3.22
Cc1ncc(C(=O)NN)c(O)n1 | 0.4
CN(C)C(=O)N1CCC(C(=O)NN)CC1 | 0.22
COc1cc(C(=O)NN)ccc1O | 1.52
NNC(=O)c1cccc(N)c1 | 2.52
NNC(=O)c1ccncc1N | 2.82
NNC(=O)c1ccc(Cl)cc1 | 2.52
NNC(=O)c1ccccc1N | 1.52
NNC(=O)Cc1ccncc1 | 1

SMILES | pMIC
NNC(=O)c1ccccn1 | 3.82
NNC(=O)c1cncs1 | 2
NNC(=O)c1ccnc(F)c1 | 3.4
NNC(=O)c1c[nH]c(S)n1 | 0.6
Cc1cnccc1C(=O)NN | 0.7
NNC(=O)C(O)c1ccccc1 (stereo unspecified) | 1.4
NNC(=O)Cc1ccccc1 | 1.92
NNC(=O)Cc1ccc(Cl)cc1 | 2
NNC(=O)C1Cc2ccccc2O1 (stereo unspecified) | 0.65
Cn1cncc1C(=O)NN | 0.52
NNC(=O)c1ccco1 | 4.22
NNC(=O)c1ccnc(Br)c1 | 1.82
NNC(=O)c1cscn1 | 1.82
CN1CCC(C(=O)NN)CC1 | 0.22
NNC(=O)c1ccccc1 [BENZOIC ACID HYDRAZIDE] | 3.22
NNC(=O)c1ccncc1 [ISONIAZID] | 4.2
NNC(=O)c1cccnc1 [NICOTINIC ACID HYDRAZIDE] | 2.7
NNC(=O)c1cnccn1 [PYRAZINE CARBOXYLIC ACID HYDRAZIDE] | 2.82

— ChEMBL document CHEMBL1148365, “Rational design of new antituberculosis agents: receptor-independent four-dimensional quantitative structure-activity relationship analysis of a set of isoniazid derivatives” (2004)
